Test results published in US20170137410A1, “FUSED CYCLOALKYL-PYRIMIDINE COMPOUNDS AND USES THEREOF” (Medivation Technologies, Inc., priority 2014, published 2017).

Key:
Assay type in all cases: biochemical
[1] = biological target: Trk B (Homo sapiens, UniProt Q16620); assay: HotSpot kinase assay against Trk B; conditions: HotSpot 33P assay, ATP 10 μM-30 μM
Description: (§1) Kinase assays were performed using test compounds against a panel of Trk kinases: Trk A; Trk B; and Trk C. Each compound was tested at a concentration of 0.1 μM in single duplicate mode against the three kinases. Compounds were prepared as 10 mM stock solutions in DMSO prior to use in the assay. The control compound, staurosporine, was tested at 10 concentrations with three-fold serial dilution starting at 20 μM. IC50 values and curve fits were obtained using Prism (GraphPad Software). IC50 values were determined for staurosporine for comparison.
(§2) The screening was performed using the “HotSpot” assay platform. The assay measures the conversion of a peptide substrate to ^33P-labelled phosphorylated product. Briefly, specific kinase/substrate pairs along with required cofactors were prepared in reaction buffer. Specifically, the substrate was prepared in reaction buffer (20 mM Hepes, pH 7.5; 10 mM MgCl2; 1 mM EGTA; 0.02% Brij35; 0.02 mg/mL BSA; 0.1 mM Na3VO4; 2 mM DTT; 1% DMSO), followed by delivery of any required cofactor to the resulting substrate solution. The corresponding kinase was delivered into the substrate solution and the reaction mixture was mixed gently. Compound was delivered into the reaction mixture, followed 15-20 min later by addition of a mixture of ATP (Sigma, St. Louis Mo.) and ^33P ATP (specific activity 0.01 μCi/μL final; Perkin Elmer, Waltham, Mass.) to a final concentration of 10 μM-30 μM to initiate the reaction. Reactions were carried out at RT for 120 min, followed by spotting of the reactions onto P81 ion exchange filter paper (Whatman #3698-915; Whatman Inc., Piscataway, N.J.). Unbound phosphate was removed by extensive washing of filters in 0.75% phosphoric acid. […] The percent of enzyme inhibition was calculated based on the percent of remaining kinase activity.

[2] = biological target: T1, activated IGF-1R (Homo sapiens, UniProt P08069); assay: In vitro IGF-1R enzymatic assay (ADP-Glo); conditions: ATP 100 μM; for inhibition at 1 µM: compound 1 μM; for inhibition at 3 µM: compound 3 μM; for inhibition at 10 µM: compound 10 μM; for inhibition at 30 µM: compound 30 μM
T1 construct: purchased Millipore 14-802
T1 sequence (P08069 31-1367): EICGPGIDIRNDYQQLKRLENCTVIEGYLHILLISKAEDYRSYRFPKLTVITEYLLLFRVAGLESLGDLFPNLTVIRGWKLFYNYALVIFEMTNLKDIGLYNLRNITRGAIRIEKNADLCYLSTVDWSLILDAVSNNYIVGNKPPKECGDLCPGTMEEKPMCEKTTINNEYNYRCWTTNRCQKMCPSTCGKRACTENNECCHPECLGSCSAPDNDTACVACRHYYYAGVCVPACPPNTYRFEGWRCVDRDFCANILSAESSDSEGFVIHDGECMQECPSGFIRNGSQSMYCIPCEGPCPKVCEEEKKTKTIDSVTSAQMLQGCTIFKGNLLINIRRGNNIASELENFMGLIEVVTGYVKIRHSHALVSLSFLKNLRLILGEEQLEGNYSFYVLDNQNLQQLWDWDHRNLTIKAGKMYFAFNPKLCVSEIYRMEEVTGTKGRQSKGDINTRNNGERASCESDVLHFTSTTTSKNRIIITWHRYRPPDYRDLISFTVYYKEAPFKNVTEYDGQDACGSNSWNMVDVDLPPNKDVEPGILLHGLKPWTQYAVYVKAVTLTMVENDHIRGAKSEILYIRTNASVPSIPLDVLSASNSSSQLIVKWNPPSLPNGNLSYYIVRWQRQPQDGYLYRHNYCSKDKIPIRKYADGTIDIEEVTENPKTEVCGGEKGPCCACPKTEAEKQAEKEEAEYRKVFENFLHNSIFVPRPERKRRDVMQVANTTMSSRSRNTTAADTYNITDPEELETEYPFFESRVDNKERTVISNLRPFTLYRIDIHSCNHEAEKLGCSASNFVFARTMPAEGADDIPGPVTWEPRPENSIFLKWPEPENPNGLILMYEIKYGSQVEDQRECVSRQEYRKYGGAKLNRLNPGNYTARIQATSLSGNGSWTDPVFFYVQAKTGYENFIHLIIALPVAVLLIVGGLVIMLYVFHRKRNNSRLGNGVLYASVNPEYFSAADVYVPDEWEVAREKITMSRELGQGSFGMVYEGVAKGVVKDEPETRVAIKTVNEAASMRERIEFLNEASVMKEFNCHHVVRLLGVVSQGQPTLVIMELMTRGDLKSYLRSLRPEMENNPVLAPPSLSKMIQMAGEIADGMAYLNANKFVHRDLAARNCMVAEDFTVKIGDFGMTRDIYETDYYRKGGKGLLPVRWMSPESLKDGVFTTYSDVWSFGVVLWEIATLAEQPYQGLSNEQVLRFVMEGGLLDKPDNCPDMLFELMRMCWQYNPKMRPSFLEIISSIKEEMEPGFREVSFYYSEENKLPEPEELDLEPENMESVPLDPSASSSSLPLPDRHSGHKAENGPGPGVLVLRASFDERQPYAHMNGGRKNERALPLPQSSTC
Description: (§3) Inhibition of IGF-1R and IR kinases by compounds described herein were tested. The IC50 values were measured in vitro using an ADP-Glo kinase assay Kit (Promega). For the IGF-1R assay, active recombinant IGF-1R (Millipore #14-802) was used at 1 ng/reaction, the substrate IGF-1R tide (Millipore #12-527) was used at 125 μM and ATP was used at 100 μM. For the IR assay, active recombinant IR (Millipore #14-803) was used at 1 ng/reaction, the substrate Axl tide (Millipore #12-516) was used at 125 μM and ATP at 50 μM. Kinase reactions in both assays were conducted at 30° C. for 20 min with increasing concentrations of the test compounds.
(§4) The assay results as the percent inhibition of binding are presented in Tables B2 and B3 for IGF-1R and IR respectively.

[3] = biological target: Trk A (Homo sapiens, UniProt P04629); assay: HotSpot kinase assay against Trk A; conditions: HotSpot 33P assay, ATP 10 μM-30 μM
Sequence of Trk A (P04629 33-796): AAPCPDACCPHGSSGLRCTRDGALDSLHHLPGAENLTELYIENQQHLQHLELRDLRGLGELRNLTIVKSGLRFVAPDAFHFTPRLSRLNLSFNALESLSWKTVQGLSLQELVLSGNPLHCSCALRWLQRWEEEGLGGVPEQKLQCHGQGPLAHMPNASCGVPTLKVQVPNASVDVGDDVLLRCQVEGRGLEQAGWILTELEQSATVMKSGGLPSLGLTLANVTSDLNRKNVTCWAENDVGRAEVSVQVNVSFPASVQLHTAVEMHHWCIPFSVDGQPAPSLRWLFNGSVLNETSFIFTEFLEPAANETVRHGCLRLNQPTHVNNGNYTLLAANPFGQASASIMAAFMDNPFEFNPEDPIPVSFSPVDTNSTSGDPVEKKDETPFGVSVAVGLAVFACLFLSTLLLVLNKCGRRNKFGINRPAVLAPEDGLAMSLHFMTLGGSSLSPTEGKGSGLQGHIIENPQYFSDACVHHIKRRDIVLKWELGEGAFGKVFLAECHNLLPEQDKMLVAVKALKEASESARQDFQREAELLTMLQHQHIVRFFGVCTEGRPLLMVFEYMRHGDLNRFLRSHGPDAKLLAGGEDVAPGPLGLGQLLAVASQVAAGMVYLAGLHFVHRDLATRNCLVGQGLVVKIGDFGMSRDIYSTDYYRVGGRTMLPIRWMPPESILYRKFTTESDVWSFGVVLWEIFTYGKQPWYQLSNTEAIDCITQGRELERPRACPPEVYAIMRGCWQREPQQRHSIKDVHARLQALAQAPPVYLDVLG
Description: as §1, §2

[4] = biological target: Trk C (Homo sapiens, UniProt Q16288); assay: HotSpot kinase assay against Trk C; conditions: HotSpot 33P assay, ATP 10 μM-30 μM
Sequence of Trk C (Q16288 32-839): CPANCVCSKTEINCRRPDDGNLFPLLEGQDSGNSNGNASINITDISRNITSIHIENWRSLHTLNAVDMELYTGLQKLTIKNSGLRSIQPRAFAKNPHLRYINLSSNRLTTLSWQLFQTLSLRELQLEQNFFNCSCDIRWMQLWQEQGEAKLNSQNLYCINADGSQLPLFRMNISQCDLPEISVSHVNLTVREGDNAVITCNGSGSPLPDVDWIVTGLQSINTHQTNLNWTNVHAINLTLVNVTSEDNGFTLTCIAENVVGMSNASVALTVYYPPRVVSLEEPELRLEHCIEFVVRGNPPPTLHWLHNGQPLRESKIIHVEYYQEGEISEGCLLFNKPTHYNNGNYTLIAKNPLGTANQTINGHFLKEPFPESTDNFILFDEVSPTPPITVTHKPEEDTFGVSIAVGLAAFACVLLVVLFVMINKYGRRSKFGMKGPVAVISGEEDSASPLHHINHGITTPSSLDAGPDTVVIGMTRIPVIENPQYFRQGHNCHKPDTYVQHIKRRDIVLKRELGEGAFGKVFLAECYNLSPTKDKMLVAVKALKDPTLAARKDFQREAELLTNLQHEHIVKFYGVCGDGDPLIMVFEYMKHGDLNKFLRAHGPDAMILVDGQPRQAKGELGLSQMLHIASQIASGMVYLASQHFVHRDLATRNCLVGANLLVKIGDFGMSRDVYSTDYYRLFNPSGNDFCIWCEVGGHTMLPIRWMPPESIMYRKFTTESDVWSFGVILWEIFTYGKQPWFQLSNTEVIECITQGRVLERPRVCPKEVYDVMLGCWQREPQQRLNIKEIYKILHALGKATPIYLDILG
Description: as §1, §2

[5] = biological target: T2, activated IR (Homo sapiens, UniProt P06213); assay: In vitro IR enzymatic assay (ADP-Glo); conditions: ATP 50 μM; for inhibition at 1 µM: compound 1 μM; for inhibition at 3 µM: compound 3 μM; for inhibition at 30 µM: compound 30 μM
T2 construct: purchased Millipore 14-803
T2 sequence (P06213 28-1382): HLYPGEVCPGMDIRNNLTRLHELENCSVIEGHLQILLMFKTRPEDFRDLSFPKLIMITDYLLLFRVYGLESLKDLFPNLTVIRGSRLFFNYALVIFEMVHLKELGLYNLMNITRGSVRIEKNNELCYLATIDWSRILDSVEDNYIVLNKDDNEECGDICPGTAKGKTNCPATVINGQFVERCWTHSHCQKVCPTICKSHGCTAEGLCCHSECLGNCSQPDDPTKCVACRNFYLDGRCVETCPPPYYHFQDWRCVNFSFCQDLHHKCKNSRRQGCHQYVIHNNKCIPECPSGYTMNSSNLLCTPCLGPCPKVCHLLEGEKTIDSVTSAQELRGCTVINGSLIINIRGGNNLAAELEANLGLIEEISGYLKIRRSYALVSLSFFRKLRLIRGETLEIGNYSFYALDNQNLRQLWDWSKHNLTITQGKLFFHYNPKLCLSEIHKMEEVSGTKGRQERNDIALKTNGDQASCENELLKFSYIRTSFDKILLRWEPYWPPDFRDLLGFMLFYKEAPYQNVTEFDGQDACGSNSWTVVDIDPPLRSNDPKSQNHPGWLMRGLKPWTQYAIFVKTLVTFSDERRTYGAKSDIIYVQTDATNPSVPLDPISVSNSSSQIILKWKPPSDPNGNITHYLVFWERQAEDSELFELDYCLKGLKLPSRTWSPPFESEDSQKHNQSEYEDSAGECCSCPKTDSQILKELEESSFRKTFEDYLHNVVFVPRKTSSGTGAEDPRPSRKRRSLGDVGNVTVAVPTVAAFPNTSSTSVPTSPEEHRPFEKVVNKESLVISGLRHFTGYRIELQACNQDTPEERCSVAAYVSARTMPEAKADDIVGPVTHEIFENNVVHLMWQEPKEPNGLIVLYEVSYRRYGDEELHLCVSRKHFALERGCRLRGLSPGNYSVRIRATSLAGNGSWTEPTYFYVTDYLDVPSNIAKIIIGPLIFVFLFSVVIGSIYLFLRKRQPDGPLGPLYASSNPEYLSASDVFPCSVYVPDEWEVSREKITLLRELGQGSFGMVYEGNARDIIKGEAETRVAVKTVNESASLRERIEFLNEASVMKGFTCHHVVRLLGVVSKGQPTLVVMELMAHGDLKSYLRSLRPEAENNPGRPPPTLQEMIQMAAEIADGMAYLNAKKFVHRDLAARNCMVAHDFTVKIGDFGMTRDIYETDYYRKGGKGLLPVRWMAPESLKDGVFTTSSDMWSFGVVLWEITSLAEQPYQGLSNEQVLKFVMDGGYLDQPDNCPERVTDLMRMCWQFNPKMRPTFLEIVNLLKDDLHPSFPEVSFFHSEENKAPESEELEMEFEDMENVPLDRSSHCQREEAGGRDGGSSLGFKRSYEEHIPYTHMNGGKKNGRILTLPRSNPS
Description: as §3, §4

Sequence of Trk B (Q16620 32-822): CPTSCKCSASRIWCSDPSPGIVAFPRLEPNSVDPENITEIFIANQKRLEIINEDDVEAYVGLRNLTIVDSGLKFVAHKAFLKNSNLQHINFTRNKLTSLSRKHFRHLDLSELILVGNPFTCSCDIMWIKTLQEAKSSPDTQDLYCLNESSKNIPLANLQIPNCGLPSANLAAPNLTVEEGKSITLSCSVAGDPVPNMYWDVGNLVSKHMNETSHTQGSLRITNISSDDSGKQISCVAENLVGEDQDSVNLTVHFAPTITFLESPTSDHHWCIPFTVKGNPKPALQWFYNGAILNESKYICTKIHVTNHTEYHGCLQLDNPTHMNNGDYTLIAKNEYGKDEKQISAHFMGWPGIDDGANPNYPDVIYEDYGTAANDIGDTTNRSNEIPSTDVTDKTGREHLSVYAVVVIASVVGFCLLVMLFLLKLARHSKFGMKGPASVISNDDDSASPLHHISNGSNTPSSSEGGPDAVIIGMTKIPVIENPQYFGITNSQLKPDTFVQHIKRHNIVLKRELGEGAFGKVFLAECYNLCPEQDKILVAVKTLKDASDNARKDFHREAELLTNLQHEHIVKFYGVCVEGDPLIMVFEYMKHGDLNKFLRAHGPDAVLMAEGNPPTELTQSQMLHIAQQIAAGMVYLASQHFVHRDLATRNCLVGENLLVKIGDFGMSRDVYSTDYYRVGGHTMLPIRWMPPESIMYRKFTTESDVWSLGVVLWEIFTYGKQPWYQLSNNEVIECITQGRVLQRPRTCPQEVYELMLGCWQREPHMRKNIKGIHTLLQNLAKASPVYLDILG

SMILES | IC50 [1] [nM] | inhibition at 1 µM [2] [%] | inhibition at 3 µM [2] [%] | inhibition at 10 µM [2] [%] | inhibition at 30 µM [2] [%] | IC50 [3] [nM] | IC50 [4] [nM] | inhibition at 1 µM [5] [%] | inhibition at 3 µM [5] [%] | inhibition at 30 µM [5] [%]
CN(C)C(=O)[C@H]1CCCN1c1nc2c(c(Nc3cc(C4CCOCC4)[nH]n3)n1)CCC2 [91a, (R)—N,N-dimethyl-1-(4-((5-(tetrahydro-2H-pyran-4-yl)-1H-pyrazol-3-yl)amino)-6,7-dihydro-5H-cyclopenta[d]pyrimidin-2-yl)pyrrolidine-2-carboxamide] | 403 | 6 | 14 | 14 | 38 | 1440 | 180 | 5 | 16 | 45
CN(C)C(=O)[C@@H]1CCCN1c1nc2c(c(Nc3cc(C4CCOCC4)[nH]n3)n1)CCC2 [91b, (S)-N,N-dimethyl-1-(4-(5-(tetrahydro-2H-pyran-4-yl)-1H-pyrazol-3-ylamino)-6,7-dihydro-5H-cyclopenta[d]pyrimidin-2-yl)pyrrolidine-2-carboxamide] | 902 | 0 | 4 | -2 | 21 | 6310 | 362 | 1 | -2 | 7
O=C([C@H]1CCCN1c1nc2c(c(Nc3cc(C4CCCC4)[nH]n3)n1)CCC2)N1CC(F)(F)C(F)(F)C1 [110a, (R)-(1-(4-((5-cyclopentyl-1H-pyrazol-3-yl)amino)-6,7-dihydro-5H-cyclopenta[d]pyrimidin-2-yl)pyrrolidin-2-yl)(3,3,4,4-tetrafluoropyrrolidin-1-yl)methanone] | 171 | 31 | 61 | 83 | 96 | 189 | 80.4 | 32 | 64 | 97
CC(C)c1cc(Nc2nc(N3CCC[C@@H]3C(=O)N3CC(F)(F)C(F)(F)C3)nc3c2CCC3)n[nH]1 [112a, (R)-(1-(4-((5-isopropyl-1H-pyrazol-3-yl)amino)-6,7-dihydro-5H-cyclopenta[d]pyrimidin-2-yl)pyrrolidin-2-yl)(3,3,4,4-tetrafluoropyrrolidin-1-yl)methanone] | 628 |  |  |  |  | 670 | 279 | 35 |  | 
CN1CCN(C(=O)[C@H]2CCCN2c2nc3c(c(Nc4cc(C5CCCC5)[nH]n4)n2)CCC3)CC1 [134a, (R)-(1-(4-(5-cyclopentyl-1H-pyrazol-3-ylamino)-6,7-dihydro-5H-cyclopenta[d]pyrimidin-2-yl)pyrrolidin-2-yl)(4-methylpiperazin-1-yl)methanone] | 90 | 73 |  |  |  | 32 | 44.4 | 80 |  | 
CN1CCN(C(=O)[C@@H]2CCCN2c2nc3c(c(Nc4cc(C5CCCC5)[nH]n4)n2)CCC3)CC1 [134b, (S)-(1-(4-(5-cyclopentyl-1H-pyrazol-3-ylamino)-6,7-dihydro-5H-cyclopenta[d]pyrimidin-2-yl)pyrrolidin-2-yl)(4-methylpiperazin-1-yl)methanone] | 31 | 16 | 26 | 55 | 77 | 337 | 4.8 | 26 | 36 | 85
CC(C)c1cc(Nc2nc(N3CCC[C@@H]3C(=O)N3CCC(F)(F)C3)nc3c2CCC3)n[nH]1 [139a, (R)-(3,3-difluoropyrrolidin-1-yl)(1-(4-((5-isopropyl-1H-pyrazol-3-yl)amino)-6,7-dihydro-5H-cyclopenta[d]pyrimidin-2-yl)pyrrolidin-2-yl)methanone] | 258 |  |  |  |  | 669 | 144 | 42 |  | 

Molecules with a lower IC50 [1], results first:

IC50 [1] [nM] | inhibition at 1 µM [2] [%] | inhibition at 3 µM [2] [%] | inhibition at 10 µM [2] [%] | inhibition at 30 µM [2] [%] | IC50 [3] [nM] | IC50 [4] [nM] | inhibition at 1 µM [5] [%] | inhibition at 3 µM [5] [%] | inhibition at 30 µM [5] [%] | SMILES
4 |  | 36 | 65 | 86 | 109 | 1.3 | 12 | 36 | 89 | CC(C)c1cc(Nc2nc(N3CCC[C@H]3C(=O)N3CC(F)(F)C(F)(F)C3)nc3c2CCC3)n[nH]1 [112b, (S)-(1-(4-(5-isopropyl-1H-pyrazol-3-ylamino)-6,7-dihydro-5H-cyclopenta[d]pyrimidin-2-yl)pyrrolidin-2-yl)(3,3,4,4-tetrafluoropyrrolidin-1-yl)methanone]
2 | 35 | 57 | 83 | 95 | 26 | 1.2 | 30 | 60 | 97 | CN(C(=O)[C@@H]1CCCN1c1nc2c(c(Nc3cc(C4CCCC4)n[nH]3)n1)CCC2)c1nccs1 [70b, (2S)-1-[4-[(3-cyclopentyl-1H-pyrazol-5-yl)amino]-6,7-dihydro-5H-cyclopenta[d]pyrimidin-2-yl]-N-methyl-N-thiazol-2-yl-pyrrolidine-2-carboxamide]
2 | 1 | 18 | 34 | 68 | 41 | 0.8 | 3 | 21 | 74 | O=C([C@@H]1CCCN1c1nc2c(c(Nc3cc(C4CCCC4)[nH]n3)n1)CCC2)N1CC(F)(F)C(F)(F)C1 [110b, (S)-(1-(4-(5-cyclopentyl-1H-pyrazol-3-ylamino)-6,7-dihydro-5H-cyclopenta[d]pyrimidin-2-yl)pyrrolidin-2-yl)(3,3,4,4-tetrafluoropyrrolidin-1-yl)methanone]
2 |  |  |  |  | 53 | 0.7 | 35 |  |  | CC(C)c1cc(Nc2nc(N3CCC[C@H]3C(=O)N3CCC(F)(F)C3)nc3c2CCC3)n[nH]1 [111b, (S)-(3,3-difluoropyrrolidin-1-yl)(1-(4-((5-isopropyl-1H-pyrazol-3-yl)amino)-6,7-dihydro-5H-cyclopenta[d]pyrimidin-2-yl)pyrrolidin-2-yl)methanone]
1 | 12 | 33 | 61 | 84 | 11 | 0.3 | 12 | 39 | 86 | O=C([C@@H]1CCCN1c1nc2c(c(Nc3cc(C4CCCC4)[nH]n3)n1)CCC2)N1CCC(F)(F)C1 [109b, (S)-(1-(4-((5-cyclopentyl-1H-pyrazol-3-yl)amino)-6,7-dihydro-5H-cyclopenta[d]pyrimidin-2-yl)pyrrolidin-2-yl)(3,3-difluoropyrrolidin-1-yl)methanone]
0.038 | 95 |  |  |  | 0.515 | 0.243 | 97 |  |  | O=C(Nc1nccs1)[C@@H]1CCCN1c1nc2c(c(Nc3cc(C4CCCC4)[nH]n3)n1)CCC2 [133b, (S)-1-(4-(5-cyclopentyl-1H-pyrazol-3-ylamino)-6,7-dihydro-5H-cyclopenta[d]pyrimidin-2-yl)-N-(thiazol-2-yl)pyrrolidine-2-carboxamide]
